Laboratory results as given in US20080161396A1, “Method of control of arthropod pests of game and pet birds” (priority 2006, published 2008).
Several values for one entry are separate records, joined by “and”; a condition that tells them apart may be missing. Identical values can stand only once. Entries after “also recorded” stand apart in the source; their conditions may differ.

Key:
[1] = system: ticks; assay: Tick infestation of red grouse chicks after permethrin band treatment of hens and chicks (field experiment, two Moors); type: in vivo, Ixodes ricinus
Experimental: This experiment assessed the effect of ticks on grouse productivity. The experiment was replicated in two sites located in NE Scotland and Perthshire. On each Moor, hens were either treated with permethrin leg bands or with untreated bands. After hatching, chicks from treated hens were also treated and tagged with a permethrin band attached to a metal patagial tag, while chicks from control broods were tagged with only the metal patagial tags.
(§1) The experiment was conducted on two sites located in the North of Scotland (March-October). In outline, on each Moor, hens were either treated with permethrin leg bands or with untreated band. After hatching, chicks from treated hens were also tagged and treated with permethrin partagial bands, while chicks from control brood were tagged but not treated with permethrin. The experiment was conducted on Tullybeagles Estate in Perthshire (hereafter referred as to Moor 1) and Forest of Birse Estate on Deeside (hereafter Moor 2). Both Moors are managed for grouse (heather burning, predator control, worm control) and had low grouse densities and low productivity in recent years.
(§2) Catching and treatment of hens. In spring (18 March-6 April), 40 hens were caught on Moor 1 and 20 on Moor 2. Each was randomly assigned to one of two treatments. Half the birds caught at each site were treated (i.e., given acaracide leg bands, two per bird), or kept as control (untreated bands). Hens were fitted with radio collars (TW-3, Biotrack) to facilitate relocation. Birds were aged, weighed, wing length measured and condition score recorded. All hens were dosed with anthelminthic (Levamisole hydrochloride 3%) to remove nematode parasites. Nematodes are well known for their negative effects on grouse breeding success and survival (Hudson, 1986), so removing them standardized the birds for this possible source of variation.
(§3) Brood survival to 2 weeks +/−5 days and treatment of chicks. Hens were located by radio tracking and pointer dogs were used to locate chicks. As many chicks as possible were captured. […] Brood survival to 1 month days +/−5 days. Hens were located by radio tracking and pointer dogs were used to locate chicks. As many chicks as possible were captured. […] length and tick counts (around head and neck area) were recorded. A blood sample was collected in EDTA coated eppendorfs. At 1 month, because it was difficult to ensure that all the chicks were found during daytime visits with dogs, we also located hens and broods at night by radio tracking and broods were counted using lamp. This provided the best estimate of brood size at 1 month, which was used in subsequent analyses.
(§4) Statistical analyses. Tick numbers were modeled using generalized linear mixed models with brood as a random effect and using a poisson error distribution. Tick burdens are known to be much less variable within broods than between broods (Elston et al., 2001). The seasonal pattern was investigated by fitting time as julian day (days from 1st January) and the asymptotic pattern in the data was captured using a quadratic function of julian day (julian day*julian day). The interaction between time and treatment was used to determine if the pattern of tick burden varied between treatments. The relationship between tick burden and age was investigated using chick age as number of days post hatching and the quadratic function of chick age to investigate if there was a significant asymptotic relationship between average brood tick abundance and chick age (a rise and fall in tick numbers in relation to age). Hatching success was modeled using logistic regression (binomial error structure) with the proportion of eggs that hatched as a proportion of the total clutch size as the response variable. Brood survival was modeled using logistic regression (binomial error structure) with the proportion of chicks alive as a proportion of the number of chicks that hatched as the response variable. […]

[2] = Breeding success, brood size, chick survival and chick growth of red grouse (treated vs control hens/broods); type: in vivo, red grouse (Lagopus lagopus scoticus); settings: for Breeding success (%): only hens alive at the end of breeding season
Experimental: as §1, §2
Laying time. Nests were located by radio tracking and their location recorded using GPS. Clutch size was measured, and all eggs were weighed (with an electronic balance, to the nearest 0.1 g) and measured (length by width, with a caliper, to the nearest 0.1 mm). Egg density was used to estimate hatch dates (see Seivwright, 2004). If clutches were incomplete at first visit, nests were revisited.
Hatching success. Around predicted hatch date (from egg measurements), nests were located using GPS and number of hatched and un-hatched eggs were recorded. Broods were located by radio-tracking hens and chicks were found and counted with the aid of trained pointer dogs.
as §3
Brood size at fledging. Hens were located at around 45 days post hatching. Broods were then flushed and number of chicks was counted.
as §4, with “age).” for “age). Hatching success was modeled using logistic regression (binomial error structure) with the proportion of eggs that hatched as a proportion of the total clutch size as the response variable. Brood survival was modeled using logistic regression (binomial error structure) with the proportion of chicks alive as a proportion of the number of chicks that hatched as the response variable.”

[3] = Hen survival of treated and control red grouse hens; type: in vivo, red grouse (Lagopus lagopus scoticus); settings: for % hens alive after 6 months: alive in October
Experimental: as §1, §2

[4] = system: ticks; settings: pour on; high tick site; cited from earlier work

With `CC1(C)C(C=C(Cl)Cl)C1C(=O)OCc1cccc(Oc2ccccc2)c1` (stereo not drawn) [permethrin] the “tick infestation rates of treated chicks compared with untreated chicks from treated mothers” value ([1]; across season, FIG. 1) was “significantly lower”, the “number of chicks with patagial treatment band found with ticks” value ([1]; chicks carrying patagial band) was “one” and the “average tick counts on treated chicks compared with control chicks” value ([1]; chicks with permethrin patagial band, taking into account seasonal pattern, FIG. 1) was “significantly lower”. For the same molecule, the “average ticks per chick in untreated chicks from treated hens compared with control broods” value ([1]; hen treatment only (leg bands), across the season, FIG. 1) was “significantly lower”, the “tick infestation in untreated chicks from treated hens compared with controls in relation to chick age” value ([1]; hen treatment only, by chick age, FIG. 2) was “significantly lower” and the “tick infestation levels in untreated chicks from treated hens” value ([1]; hen treatment only, discussion summary) was “very low”. The “peak tick numbers in untreated chicks from treated hens relative to controls” value ([1]; hen treatment only, fraction of that found in controls) was “about one third”, the “peak tick numbers in untreated chicks from treated hens” value ([1]; hen treatment only, seasonal pattern) was “around 4 ticks per chick” and the “tick infestation rates of treated chicks compared with untreated chicks from treated mothers” value ([1]; in relation to chick age) was “no significant difference”. For the same molecule, the “maximum mean infestation rate in the treated group” value ([1]; treated chicks, age 0 to 55 days, FIG. 2, control around 12) was “less than 2 ticks per chick”, the “tick numbers of treated chicks compared with controls in relation to age” value ([1]; treated chicks, age range 0 to 55 days, FIG. 2) was “significantly lower” and the “tick infestation after directly treating chicks with acaracide” value ([1]; treated chicks, discussion summary) was “negligible levels”. For the same molecule, the “peak average tick numbers per chick in the treated group” value ([1]; treated chicks, seasonal pattern, FIG. 1, control peak around 13) was 2 ticks per chick per brood, the “effect of treatment on growth (wing length or body mass) of chicks” value ([2]; Moor 1 & 2 combined, FIG. 4) was “no effect; also recorded: did not differ” and the “Breeding outcome (success %)” value ([2]; Moor 1, treated) was “(21.5%)”. The “Breeding outcome = Total number of young fledged” value ([2]; Moor 1, treated) was 40, the “Brood size at 1 month” value ([2]; Moor 1, treated) was 3.6 ± 2.9 and the “Brood size at 2 weeks” value ([2]; Moor 1, treated) was 6.0 ± 2.7. The “Brood size at fledging” value ([2]; Moor 1, treated) was 2.7 ± 2.9, the Hatched brood size ([2]; Moor 1, treated) was 8.5 ± 3.2 and the “Breeding success (%)” value ([2]; Moor 1, treated) was 35.9 ± 27.2%. The “Breeding outcome (success %)” value ([2]; Moor 2, treated) was “(10.9%)”, the “Breeding outcome = Total number of young fledged” value ([2]; Moor 2, treated) was 5 and the “Brood size at 1 month” value ([2]; Moor 2, treated) was 2.0 ± 2.0. For the same molecule, the “Brood size at 2 weeks” value ([2]; Moor 2, treated) was 3.4 ± 1.0, the “Brood size at fledging” value ([2]; Moor 2, treated) was 1.0 ± 1.2 and the Hatched brood size ([2]; Moor 2, treated) was 8.1 ± 2.4. The “Breeding success (%)” value ([2]; Moor 2, treated) was 12.8 ± 13.7%, the “effect of hen treatment on number of eggs that hatched as a proportion of the clutch size (hatching success)” value ([2]; both Moors) was “no effect” and the “effect of treatment on brood size at 1 month of age” value ([2]; both Moors) was “no effect”. The “effect of treatment on brood size at 2 weeks of age” value ([2]; both Moors) was “no effect”, the “effect of treatment on brood size at fledging” value ([2]; both Moors, late July) was “no effect” and the “effect of treatment on chick survival rates” value ([2]; discussion summary) was “no effect”. The “hatched chicks alive at approximately 2 weeks of age” value ([2]; treated group (CL=57-71%), control 58%) was 65%, the “% hens alive after 6 months” value ([3]; Moor 1, treated hens) was 68.4% and 60% and the “% hens alive after 6 months” value ([3]; Moor 2, treated hens) was 60% and 68%. For the same molecule, the “hen survival, treated compared with control hens” value ([3]; overall, FIG. 6) was “did not differ”.
In the case of `CC1(C)[C@H](C(=O)O[C@H](C#N)c2cccc(Oc3ccccc3)c2)[C@@H]1C=C(Br)Br` [deltamethrin], the “duration of short term effects” value [4] is listed as “up to 20 days” and the “time by which the effect had waned” value [4] is listed as ≤ 40 days.
